In article PMC4905667, “Discovery of Small-Molecule Modulators of the Human Y4 Receptor” (PLoS ONE, 2016):
Like-named read-outs stand apart in the source and are kept apart here. No end group written: not given here.

Columns and labels:
[1] = test system: T1, human Y5R; test: Inositol phosphate (IP3) accumulation assay, Y5R stimulated with NPY; assay type: cell-based; conditions: for Effect of compound on potency (pEC50) of NPY at Y5R (in words): 30 μM compound vs DMSO, full NPY concentration-response
T1 construct: expressed in transfected cells
Experimental: (§1) COS-7 cells stably expressing hY1/2/4/5R_eYFP fusion protein and the Δ6Gαqi4myr chimeric Gα-protein were prepared as previously described. The hY1/2/4/5R_eYFP cDNA was subcloned into MCS1 of a pVitro2-MCS vector carrying a hygromycin resistance gene; the Δ6Gαqi4myr cDNA was subcloned into MCS1 of a pVitro2-MCS vector carrying a G418 resistance gene (Invivogen, San Diego, CA).
(§2) COS-7 (African Green Monkey kidney) cells stably expressing the hY1/2/4/5R_eYFP fusion protein and the Δ6Gαqi4myr chimeric Gα-protein were cultured at 37°C in high glucose Dulbecco’s Modified Eagle Medium (DMEM, Life Technologies, Carlsbad, CA) with glutamine and sodium pyruvate (Life Technologies/Lonza) supplemented with 10% (w/v) FBS (Invitrogen, Carlsbad, CA), 1.5 mg/mL G418-sulfate (Amresco, Solon, OH) and 133 μg/ml hygromycin (Invivogen).
(§3) Cells were seeded into 48-well plates and incubated for 24 hours at 37°C / 5% CO2. Afterwards, cells were labeled for at least 16 hours in DMEM+10% (w/v) FBS containing 2 μCi/ml myo-[2- ^3H(N)]-inositol (PerkinElmer) at 37°C / 5% CO2. Labeling solution was aspirated and cells were washed with 20 μL/well DMEM + 10 mM LiCl (Sigma-Aldrich; DMEM/LiCl) and stimulated with the peptide solutions and compounds. Specifically, 50 μl/well DMEM/LiCl were added after washing, followed by addition of 50 μl/well test compound in DMEM/LiCl (3-fold over the final concentration) and addition of 50 μl/well peptide solution (3-fold over the final concentration) in DMEM/LiCl. Stimulation was performed for 2 hours at 37°C / 5% CO2. Cell lysis, subsequent sample preparation and radiometric detection was performed as described previously.
(§4) Data analysis was performed with GraphPad Prism 5.03 software (GraphPad Software, San Diego, CA). Calculation of EC50 and pEC50 was performed using standard non-linear regression (log(agonist) vs. response, three parameters). All data were normalized to the corresponding control curve in the absence of the modulator. Final concentration response curves were created by calculating the mean and SEM of all individual experiments for each data point. Statistical evaluation was performed using two-way ANOVA and Bonferroni post test with * P ≤ 0.05, ** P ≤ 0.01, *** P ≤ 0.001.
Until now, no small molecule agonists of Y receptors have been described. Based on this lack of any structure activity data, identification of Y4R PAMs was initiated with a Ca^2+-flux-based HTS approach. An initial pilot screen was performed with the ‘Spectrum collection’, a small scale library with 2000 compounds comprising synthetic small molecules as well as purified natural products covering a range of known biologically active properties. This pilot screen yielded 65 putative PAMs. All initial hits were retested for off-target effects in wildtype COS-7 cells and the PAM effect was validated via concentration-dependent potentiation of a submaximal PP response. After eliminating structures that show off-target effects, seven compounds with potencies in the micromolar range were identified (S1 Fig) for further investigation. Validation of the Y4R PAM activity was performed with a well-established assay system for Y receptor activation studies, based on cellular accumulation of inositol phosphate. […] Therefore, Y receptor activation with an agonist ligand concentration causing a submaximal response (1 nM, Fig 1) was monitored in presence and absence of test compound. […]

[2] = test system: T2, human Y2R; test: Inositol phosphate (IP3) accumulation assay, Y2R stimulated with NPY; assay type: cell-based; conditions: for Effect of compound on potency (pEC50) of NPY at Y2R (in words): 30 μM compound vs DMSO, full NPY concentration-response
T2 construct: expressed in transfected cells
Experimental: as §1, §2, §3, §4
(§5) Until now, no small molecule agonists of Y receptors have been described. Based on this lack of any structure activity data, identification of Y4R PAMs was initiated with a Ca^2+-flux-based HTS approach. An initial pilot screen was performed with the ‘Spectrum collection’, a small scale library with 2000 compounds comprising synthetic small molecules as well as purified natural products covering a range of known biologically active properties. This pilot screen yielded 65 putative PAMs. All initial hits were retested for off-target effects in wildtype COS-7 cells and the PAM effect was validated via concentration-dependent potentiation of a submaximal PP response. After eliminating structures that show off-target effects, seven compounds with potencies in the micromolar range were identified (S1 Fig) for further investigation. Validation of the Y4R PAM activity was performed with a well-established assay system for Y receptor activation studies, based on cellular accumulation of inositol phosphate. Furthermore, the compound activity at Y1R, Y2R and Y5R was examined at this stage of Y4R PAM identification. Therefore, Y receptor activation with an agonist ligand concentration causing a submaximal response (1 nM, Fig 1) was monitored in presence and absence of test compound. This experimental setup allows the detection of potential compound-induced shifts of the concentration-response curve and parallel testing of all compounds on all Y receptor subtypes. […]

[3] = target: T3, human Y4R (Homo sapiens, UniProt P50391); test: Inositol phosphate (IP3) accumulation assay, Y4R stimulated with PP; assay type: cell-based; conditions: for IP accumulation following stimulation of Y4R (DMSO set to 100%): 10 μM compound, 1 nM PP, COS-7 cells with Δ6Gαqi4myr, mean ± SEM, n = 2; for Effect of compound on potency (pEC50) of PP at Y4R (in words): 30 μM compound vs DMSO, full PP concentration-response; for EC50 / Y4R PAM activity, potentiation of a PP EC20 response (in words): IP accumulation; for EC50: three independent experiments in duplicate; for Y4R PAM activity, potentiation of a PP EC20 response (in words): concentration-dependent
T3 construct: expressed in transfected cells
T3 sequence (P50391 whole entry): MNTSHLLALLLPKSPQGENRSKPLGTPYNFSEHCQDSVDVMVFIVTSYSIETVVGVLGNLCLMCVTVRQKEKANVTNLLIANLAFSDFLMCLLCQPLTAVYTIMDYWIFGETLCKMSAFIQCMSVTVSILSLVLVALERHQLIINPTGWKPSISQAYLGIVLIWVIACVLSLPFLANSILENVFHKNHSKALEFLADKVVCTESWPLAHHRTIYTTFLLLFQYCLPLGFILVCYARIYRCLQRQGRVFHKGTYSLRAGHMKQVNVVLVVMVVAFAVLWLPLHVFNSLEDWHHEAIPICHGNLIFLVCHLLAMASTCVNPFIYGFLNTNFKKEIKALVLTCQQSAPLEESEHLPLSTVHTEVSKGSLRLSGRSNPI
Experimental: as §1, §2, §3, §4, §5

[4] = test system: T4, human Y1R; test: Inositol phosphate (IP3) accumulation assay, Y1R stimulated with NPY; assay type: cell-based; conditions: for Effect of compound on potency (pEC50) of NPY at Y1R (in words): 30 μM compound vs DMSO, full NPY concentration-response
T4 construct: expressed in transfected cells
Experimental: as §1, §2, §3, §4, §5

[5] = test system: T5, Y4R; test: HTS calcium flux assay; assay type: cell-based, human; conditions: Ca2+ flux, COS-7 hY4R_eYFP Δ6Gαqi4myr
T5 construct: expressed in transfected cells
Experimental: as §1, §2
The purities of compounds in the Vanderbilt HTS facility are more than 95% as confirmed by the supplier. A total of 35,288 compounds were tested for their ability to modulate the Y4R activation in conjunction with the Vanderbilt HTS facility. In a pilot HTS experiment, 2000 compounds (spectrum collection, MicroSource Discovery Systems, Inc., Gaylordsville, CT) were screened for modulation of the Y4R. […]

[6] = HPLC analysis of stability in DMEM assay conditions; assay type: physicochemical; conditions: pre-incubated in DMEM for 2 hours at 37°C
Experimental: Supplementary file pone.0157146.s003.png: S3 Fig HPLC analysis of VU0118748 stability in DMEM assay conditions. […] To test the stability of VU0118748 in the assay conditions, the compound was pre-incubated in DMEM for 2 hours at 37°C. […] (PNG) Click here for additional data file.

[7] = test system: db/db mice and high fat diet induced obesity in mice; parameters: method as in PMID 25282357; conditions: fed to mice, high nanomolar blood concentrations; cited from earlier work
[8] = read-out: EC50, potentiation of a PP EC20 response at Y4R
[9] = read-out: pEC50 ± SEM, potentiation of a PP EC20 response at Y4R (converted)
[10] = 10 μM compound, 1 nM NPY, mean ± SEM, n = 2

## COc1ccc(/C=C/C(=O)c2ccc(O)cc2O)cc1OC [VU0244224]
[1]; 10 μM compound, 1 nM NPY
  Effect on Y5R signal transduction (in words): no effects
[2]; 10 μM compound, 1 nM NPY
  Effect on Y2R signal transduction (in words): no effects
[3]
  IP accumulation following stimulation of Y4R (DMSO set to 100%): 127 ± 19%
[4]; 10 μM compound, 1 nM NPY
  Effect on Y1R signal transduction (in words): no effects

## Cc1ccc(NC(=O)c2cc([N+](=O)[O-])ccc2O)cc1 [VU0048992]
[2]
  Effect of compound on potency (pEC50) of NPY at Y2R (in words): slight PAM effect
[3]
  Effect of compound on potency (pEC50) of PP at Y4R (in words): increase the potency of PP
[3]; [8]
  EC50: > 10000 nM
[4]
  Effect of compound on potency (pEC50) of NPY at Y1R (in words): no effect

## pancreatic polypeptide (APLEPVYPGDNATPEQMAQYAADLRRYINMLTRPRY; ends and bridges not checked; UniProt P01298 30-65, looked up) [PP, native peptide ligand of the Y4R]
[5]
  PP EC20: 0.055 ± 0.027 nM
  PP EC80: 0.836 ± 0.033 nM

## O=C(Nc1ccc(Cl)cc1)c1cc([N+](=O)[O-])ccc1O [VU0049150]
[3]
  Effect of compound on potency (pEC50) of PP at Y4R (in words): increase the potency of PP
[3]; [8]
  EC50: > 10000 nM
[4]
  Effect of compound on potency (pEC50) of NPY at Y1R (in words): no effect

## O=C(Oc1ccc(Cl)cc1C(=O)Nc1ccc([N+](=O)[O-])cc1Cl)c1ccc([N+](=O)[O-])cc1 [VU0118748]
[1]
  Effect of compound on potency (pEC50) of NPY at Y5R (in words): negative allosteric effect
[3]
  Effect of compound on potency (pEC50) of PP at Y4R (in words): increase the potency of PP
[3]; [8]
  EC50: 473 nM
[3]; [9]
  EC50: 437 nM
[6]
  Compound still intact: 95%
[4]
  Effect of compound on potency (pEC50) of NPY at Y1R (in words): no effect

## O=C(Nc1ccc([N+](=O)[O-])cc1)c1cc(Br)ccc1O [VU0048913]
[2]
  Effect of compound on potency (pEC50) of NPY at Y2R (in words): slight PAM effect
[3]
  Effect of compound on potency (pEC50) of PP at Y4R (in words): increase the potency of PP
[3]; [8]
  EC50: 566 nM
[3]; [9]
  EC50: 575 nM
[4]
  Effect of compound on potency (pEC50) of NPY at Y1R (in words): no effect

## O=C(Nc1ccc([N+](=O)[O-])cc1Cl)c1ccncc1 [VU0357475]
[3]
  Y4R PAM activity, potentiation of a PP EC20 response (in words): inactive

## O=C(Nc1ccc([N+](=O)[O-])cc1Cl)c1cc(Cl)ccc1O [Niclosamide, reference compound]
[1]; [10]
  IP accumulation following stimulation of Y5R (DMSO set to 100%): 83.4 ± 5.9%
[1]
  Effect of compound on potency (pEC50) of NPY at Y5R (in words): negative allosteric effect
[2]; [10]
  IP accumulation following stimulation of Y2R (DMSO set to 100%): 88.5 ± 6.2%
[2]
  Effect of compound on potency (pEC50) of NPY at Y2R (in words): no effect
[3]
  IP accumulation following stimulation of Y4R (DMSO set to 100%): 185.7 ± 23.5%
  Effect of compound on potency (pEC50) of PP at Y4R (in words): increase the potency of PP
[3]; [8]
  EC50: 620 nM
[3]; in presence of compound
  Increase in the potency of PP at Y4R (EC50 shift): 4 fold
[4]; [10]
  IP accumulation following stimulation of Y1R (DMSO set to 100%): 125.4 ± 14.6%
[4]
  Effect of compound on potency (pEC50) of NPY at Y1R (in words): small PAM effect

## NCCO.O=C(Nc1ccc([N+](=O)[O-])cc1Cl)c1cc(Cl)ccc1O [ethanolamine salt form of Niclosamide]
[7]
  Efficacy on diabetic symptoms (plasma insulin decline, insulin response, high fat diet induced obesity): efficacious

## O=C(Nc1cc(C(F)(F)F)ccc1Cl)c1ccc(F)c([N+](=O)[O-])c1 [VU0114795]
[2]
  Effect of compound on potency (pEC50) of NPY at Y2R (in words): slight PAM effect
[3]
  Y4R PAM activity, potentiation of a PP EC20 response (in words): inactive

## Nc1ncnc2c1ncn2[C@@H]1O[C@H](CO)[C@@H](O)[C@H]1O [adenosine, reference compound]
[1]; 10 μM compound, 1 nM NPY
  Effect on Y5R signal transduction (in words): slightly decrease
[3]
  IP accumulation following stimulation of Y4R (DMSO set to 100%): 120 ± 11%
[4]; 10 μM compound, 1 nM NPY
  Effect on Y1R signal transduction (in words): slightly decrease
